Test results as given in patent US8962612B2, “Tetrahydroisoquinoline derivative” (Astellas Pharma Inc, priority 2011, dated 2015).

Key:
[1] = biological target: human 5-HT5A receptor (Homo sapiens (Human), UniProt P47898); test: Human 5-HT5A receptor binding inhibition test ([3H]5-CT); conditions: [3H]5-CT binding, membranes of HEK293 cells expressing human 5-HT5A receptor; Ki calculated from IC50, Kd 4.95 nM
Procedure: An open reading frame (ORF; protein coding region) of human 5-HT5A receptor (Genbank AF498985) was cloned from a human hippocampus cDNA library and then inserted into a pCR2.1 vector (Invitrogen), and E. coli carrying the plasmid was cultured in a large scale. Thereafter, a full-length cDNA sequence of the human 5-HT5A receptor was analyzed and recombined into pcDNA3.1 vector (Invitrogen) as an expression vector, followed by a large scale culturing. The HEK293 cells (ATCC) as a human embryonic kidney-derived cell line were seeded, and the expression plasmid (1 μg) obtained as above was added thereto together with LIPOFECTAMINE 2000 (Invitrogen; 2 μl) to introduce genes into the HEK293 cells. Subsequently, expression cells were screened using Geneticin (G418 sulfate 500 μg/ml; KANTO KAGAKU) as a drug resistance marker. The recombinant cells expressing the genes prepared in this manner were cultured for 3 days in Dulbecco's Modified Eagle Medium (D-MEM, Sigma) supplemented with 10% fetal calf serum (FCS), 1% penicillin/streptomycin (Pc./Sm, Invitrogen), and 500 μg/ml G418. The above experimental procedure was performed according to a genetic engineering experiment manual of a known method (Sambrook, J. et al, “Molecular Cloning-A Laboratory manual”, Cold Spring Harbor Laboratory, NY, 1989) or the like, or the instruction attached to the reagents.
The HEK293 cells forced to express the human 5-HT5A receptor were cultured in a F500 plate and collected by being scarped with a scraper. After centrifugation, the sediment was collected, and an incubation buffer (50 mM Tris(HCl), pH 7.4, 10 mM MgSO4, 0.5 mM ethylenediaminetetraacetic acid (EDTA)) was added thereto. After homogenization, centrifugation was performed again, and the sediment was thoroughly suspended in the incubation buffer added thereto. After this procedure was repeated, the protein concentration was measured, thereby completing membrane preparation.
A test compound and 150 μM of a DMSO solution of 5-carboxamide tryptamine (5-CT) were added to a 96-well plate at 2 μl/well and suspended in the incubation buffer, and the HEK293 cells forced to express the human 5-HT5A receptor that were prepared at a concentration of 200 μg/ml were added thereto at 100 μl/well. The cells were incubated for 15 minutes at room temperature, and then a [^3H]5-CT solution (3 nM [^3H]5-CT, incubation buffer) was added thereto at 100 μl/well.
100 μl of the cell solution was separately dispensed into a liquid scintillation vial, and 2 ml of Aquasol II (registered trademark) was added thereto, followed by stirring. Thereafter, the radioactivity thereof was measured using a liquid scintillation counter. The cells were incubated for 60 minutes at 37° C. The reaction mixture was aspirated into a 96-well GF/C filter plate having undergone pretreatment with 0.2% polyethyleneimine, and washed 6 times with an ice-cold 50 mM Tris (pH 7.4) buffer. Thereafter, the GF/C filter plate was dried.
MicroScint™-PS (registered trademark) was added to the plate at 40 μl/well, and the radioactivity remaining on the GF/C filter plate was measured using TopCount.
In each test example, regarding the [^3H]5-CT binding inhibitory activity resulting from the test compound, the radioactivity at the time when only DMSO was added was regarded as 0%, and the radioactivity at the time when 1.5 μM 5-CT was added was regarded as 100% inhibition, thereby calculating an IC50 value. In addition, from a Kd value of [^3H]5-CT obtained from Scatchard analysis, a Ki value was calculated by the following formula. Ki=IC50/(1+concentration of ligand added/Kd(4.95 nM))

[2] = tested on: male ICR mouse; test: MK-801-induced increase in level of physical activity (hyperactivity) of mouse; format: in vivo; conditions: MK-801 0.3 mg/kg, significance P<0.05 vs vehicle
Procedure: (§1) The improvement effect of the compound of formula (I) on schizophrenia was evaluated by the measurement of the level of physical activity reduced by the administration of the compound, in a model having symptoms induced by methamphetamine (hereinafter, abbreviated to MAP) and MK-801.
(§2) The animals were taken out of a breeding cage, and the test compound was orally administered to the animal. Thereafter, the animals were put in the breeding cage. 30 minutes later, the animals were put in a cage for measurement, and the level of physical activity of the animals administered only with the test compound was measured. Another 30 to 90 minutes later, the animals were taken out, and drugs (MAP; 1.5 mg/kg or MK-801; 0.3 mg/kg dissolved in physiological saline) increasing the level of physical activity were respectively administered to the animals subcutaneously or intraperitoneally. The level of physical activity for a certain period of time (60 minutes) was measured using an instrument measuring a level of physical activity (CompACT AMS, MUROMACHI KIKAI CO., LTD.) by an infrared sensor.
For the normal mouse (mouse administered with physiological saline) and the mouse administered with the medication increasing the level of physical activity, Student's T test was performed in the respective intervals to judge the effect. For the group administered with the test compound, Dunnett's T test was performed for the comparison with a vehicle group, whereby the effect of the compound was tested. When there was a significant difference (P<0.05), the compound was judged to be effective.

[3] = tested on: male ddy mouse; test: Scopolamine-induced spontaneous alternation behavior in mouse (Y-maze); format: in vivo; conditions: scopolamine 0.5 mg/kg i.p., alternation rate, p<0.05 vs control
Procedure: The improvement effect of the compound of formula (I) on dementia and the cognitive disease of schizophrenia was evaluated by the known test method described above by using a short-term learning disability model.
10 to 30 minutes after the test compound was orally administered, scopolamine at 0.5 mg/kg or MK-801 (physiological saline for a normal group) at 0.15 mg/kg was intraperitoneally administered, and the test was performed 20 minutes after the administration. In addition, for a normal group (group administered with physiological saline) and a control group (group administered with scopolamine at 0.5 mg/kg or MK-801 at 0.15 mg/kg), a vehicle was orally administered when the test compound was administered.
The mouse was put into one end of an arm of a maze (Y-maze) having arms of the same length that extended in three directions. The mouse was allowed to freely explore for 8 minutes, and the number of entries into the arm for the 8 minutes was counted. Moreover, a case where the mouse consecutively entered three different arms was regarded as spontaneous alternation behavior, and a ratio of the number of times of such a behavior to the total entry number was regarded as alternation rate and calculated by the following formula. Alternation rate(%)=number of times of spontaneous alternation behavior/(total entry number−2)×100
When a significant difference (Student's T test) was observed between the normal group and the control group in the alternation rate (%), the learning disability was considered to be induced by the administration of scopolamine or MK-801. By performing Dunnette's test for comparing the test compound-administered groups with the control group, whether or not the test compound has an action […] was determined. In each test, p<0.10 was regarded as a trend, and p<0.05 was regarded as a significant difference.

[4] = tested on: BALB/3T3; test: Test for evaluating phototoxic effect (neutral red incorporation, UV irradiation); format: cell-based; conditions: BALB/3T3, UV 70 minutes 1200 μW/cm2 vs non-irradiated
Procedure: 1) BALB/3T3 is peeled from a culture flask, and the cell number is counted.
2) The cell concentration is adjusted to 0.7×10^5 cells/ml, and the cells are seeded into a 96-well plate at 100 μl/well. PBS is added in an amount of 100 μl to a line of wells in both ends where the cells are not seeded.
3) The cells are cultured in a CO2 incubator for 1 day.
4) DMSO is added to a test compound, and the EBSS is further added thereto and dissolved. Ultrasonic waves, heating.
5) The compound solution of the highest concentration is transferred to the adjacent tube by 300 μL. This operation is repeated to prepare solutions having serial dilution concentration.
10) For each compound, compound solutions of 8-serial dilutions are dispensed at 100 μL/well.
11) The plates are allowed to stand still in a dark place (in a drawer of a lab bench) for 60 minutes.
12) Thereafter, the plates are irradiated with UV for 70 minutes (1200 μW/cm^2). The plate not irradiated is put in an empty box.
1) Neutral red (NR) is prepared in an amount of 50 μg/ml
3) The NR solution is dispensed at 100 μL/well.
4) Culturing is performed for 3 hours in a CO2 incubator.
8) The NR eluent is dispensed at 150 μl/well.
10) An absorbance at 540 nm is measured using a microplate reader.
According to the above test example 8, several compounds of formula (I) were evaluated. […] Herein, MPE refers to a value showing Mean Photo Effect. MPE can be calculated according to Equation 2 of the following document, for example.

[5] = tested on: male ICR mouse; test: Methamphetamine (MAP)-induced increase in level of physical activity (hyperactivity) of mouse; format: in vivo; conditions: oral dose 0.03 mg/kg; MAP 1.5 mg/kg; significance P<0.05 vs vehicle
Procedure: as §1, §2
For the normal mouse (mouse administered with physiological saline) and the mouse administered with the medication increasing the level of physical activity, Student's T test was performed in the respective intervals to judge the effect. […]

Sequence of human 5-HT5A receptor (P47898 whole entry): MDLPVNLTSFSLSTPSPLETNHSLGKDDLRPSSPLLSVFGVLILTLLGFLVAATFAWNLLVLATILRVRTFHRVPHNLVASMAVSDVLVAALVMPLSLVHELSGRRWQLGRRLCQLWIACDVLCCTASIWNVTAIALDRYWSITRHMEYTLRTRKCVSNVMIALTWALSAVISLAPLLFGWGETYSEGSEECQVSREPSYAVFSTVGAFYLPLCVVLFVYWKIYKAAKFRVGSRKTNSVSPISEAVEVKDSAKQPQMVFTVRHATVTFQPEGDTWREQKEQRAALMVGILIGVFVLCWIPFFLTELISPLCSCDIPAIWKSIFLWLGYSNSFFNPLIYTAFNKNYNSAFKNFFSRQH

Row | Compound | Ki [1] | other results
1 | NC(N)=NC(=O)N1CCc2c(F)ccc(-c3ncc(Cl)cc3F)c2C1 [Ex 4, 8-(5-chloro-3-fluoropyridin-2-yl)-N-(diaminomethylene)-5-fluoro-3,4-dihydroisoquinoline-2(1H)-carboxamide] | 4.3 nM | –
2 | NC(N)=NC(=O)N1CCc2cccc(-c3cc(F)c(F)cc3F)c2C1 [Ex 8] | 3.6 nM | –
3 | NC(N)=NC(=O)N1CCc2c(Cl)ccc(-c3c(F)cc(F)cc3F)c2C1 [Ex 23] | 1.1 nM | hyperactivity induced by MK-801 ([2]; oral dose 0.03 mg/kg): significantly suppressed; scopolamine-induced spontaneous alternation behavior ([3]; oral dose 0.003 mg/kg): significantly inhibited; MPE (Mean Photo Effect) [4]: 0.00
4 | NC(N)=NC(=O)N1CCc2c(F)ccc(-c3c(F)cc(F)cc3F)c2C1 [Ex 26] | 0.68 nM | hyperactivity induced by MK-801 ([2]; oral dose 0.03 mg/kg): significantly suppressed; scopolamine-induced spontaneous alternation behavior ([3]; oral dose 0.03 mg/kg): significantly inhibited; MPE (Mean Photo Effect) [4]: 0.00; hyperactivity induced by MAP [5]: significantly inhibited
5 | NC(N)=NC(=O)N1CCc2c(F)ccc(-c3c(F)cccc3F)c2C1 [Ex 28] | 1.1 nM | hyperactivity induced by MK-801 ([2]; oral dose 0.03 mg/kg): significantly suppressed; scopolamine-induced spontaneous alternation behavior ([3]; oral dose 0.003 mg/kg): significantly inhibited; MPE (Mean Photo Effect) [4]: 0.00; hyperactivity induced by MAP [5]: significantly inhibited
6 | NC(N)=NC(=O)N1CCc2c(Cl)ccc(-c3ccc(F)cc3F)c2C1 [Ex 44] | 2.7 nM | –
7 | Cl.NC(N)=NC(=O)N1CCc2c(F)ccc(-c3ncc(F)cc3F)c2C1 [Ex 46] | 6.9 nM | hyperactivity induced by MK-801 ([2]; oral dose 0.03 mg/kg): significantly suppressed; scopolamine-induced spontaneous alternation behavior ([3]; oral dose 0.003 mg/kg): significantly inhibited
8 | NC(N)=NC(=O)N1Cc2c(-c3ccc(F)cc3F)ccc(Cl)c2C(F)C1 (stereo not drawn) [Ex 49] | 6.6 nM | –
9 | Cc1ccc(-c2ncc(F)cc2F)c2c1CCN(C(=O)N=C(N)N)C2 [Ex 60] | 3.9 nM | hyperactivity induced by MK-801 ([2]; oral dose 0.03 mg/kg): significantly suppressed
10 | NC(N)=NC(=O)N1CCc2c(Cl)ccc(-c3c(F)cncc3F)c2C1 [Ex 61] | 2.5 nM | –
11 | NC(N)=NC(=O)N1CCc2c(F)ccc(-c3ncc(Cl)cc3Cl)c2C1 [Ex 62] | 1.9 nM | hyperactivity induced by MK-801 ([2]; oral dose 0.01 mg/kg): significantly suppressed; scopolamine-induced spontaneous alternation behavior ([3]; oral dose 0.003 mg/kg): significantly inhibited
12 | NC(N)=NC(=O)N1Cc2c(-c3c(F)cccc3F)ccc(F)c2C2(CC2)C1 [Ex 66] | 0.75 nM | –
13 | CC1CN(C(=O)N=C(N)N)Cc2c(-c3c(F)cccc3F)ccc(F)c21 (stereo not drawn) [Ex 69] | 1.6 nM | –
14 | NC(N)=NC(=O)N1Cc2c(-c3c(F)cc(F)cc3F)ccc(F)c2C2(CC2)C1 [Ex 74] | 0.88 nM | –
15 | NC(N)=NC(=O)N1Cc2c(C3CC3)ccc(F)c2C2(CC2)C1 [Ex 76] | 2.7 nM | hyperactivity induced by MK-801 ([2]; oral dose 0.1 mg/kg): significantly suppressed
16 | NC(N)=NC(=O)N1Cc2c(-c3cc(F)c(F)cc3F)ccc(F)c2C2(CC2)C1 [Ex 78] | 1.3 nM | hyperactivity induced by MK-801 ([2]; oral dose 0.1 mg/kg): significantly suppressed; scopolamine-induced spontaneous alternation behavior ([3]; oral dose 0.03 mg/kg): significantly inhibited
17 | NC(N)=NC(=O)N1CCc2c(F)ccc(-c3cc(F)c(F)cc3F)c2C1 [Ex 79] | 3.7 nM | –
18 | NC(N)=NC(=O)N1Cc2c(-c3ccc(F)cc3F)ccc(F)c2C2(CC2)C1 [Ex 80] | 0.85 nM | –
19 | NC(N)=NC(=O)N1CCc2cccc(-c3ncc(F)cc3F)c2C1 [Ex 81] | 4.2 nM | –
20 | NC(N)=NC(=O)N1Cc2c(-c3ccccc3F)ccc(F)c2C2(CC2)C1 [Ex 86] | 0.95 nM | –
